Measured values taken from the NIST ThermoML archive (doi:10.1021/acs.jced.8b00554).
Numbers after ± are expanded uncertainties.

Assay: xn = mol fraction of the nth substance listed
Settings: Liquid, Vibrating tube method

CCCCCCCCC [nonane] + CCCO
mass density [kg/m3]
Settings | 343.15 K | 353.15 K
100 kPa, x2 = 0.1231 | – | 666.99 ± 4.3
100 kPa, x2 = 0.2315 | – | 669.25 ± 4.3
100 kPa, x2 = 0.3229 | – | 671.68 ± 4.3
100 kPa, x2 = 0.4272 | – | 676.17 ± 4.3
100 kPa, x2 = 0.7021 | – | 697.1 ± 4.5
100 kPa, x2 = 0.8941 | – | 723.67 ± 4.6
1000 kPa, x2 = 0.3229 | – | 672.91 ± 4.3
1000 kPa, x2 = 0.4272 | – | 677.15 ± 4.3
1000 kPa, x2 = 0.7021 | – | 697.4 ± 4.5
1010 kPa, x2 = 0.1231 | 677.59 ± 4.3 | 667.83 ± 4.3
1010 kPa, x2 = 0.2315 | – | 670.69 ± 4.3
1010 kPa, x2 = 0.4272 | 689.57 ± 4.4 | –
1010 kPa, x2 = 0.7021 | 711.27 ± 4.5 | –
1010 kPa, x2 = 0.8941 | 737.45 ± 4.7 | 724.26 ± 4.6
1020 kPa, x2 = 0.3229 | 684.46 ± 4.4 | –
2000 kPa, x2 = 0.1231 | – | 668.99 ± 4.3
2000 kPa, x2 = 0.2315 | – | 671.87 ± 4.3
2000 kPa, x2 = 0.3229 | 685.59 ± 4.4 | –
2010 kPa, x2 = 0.1231 | 678.71 ± 4.3 | –
2010 kPa, x2 = 0.2315 | 682.42 ± 4.4 | –
2010 kPa, x2 = 0.4272 | 690.68 ± 4.4 | 678.31 ± 4.3
2010 kPa, x2 = 0.7021 | 712.38 ± 4.6 | 698.58 ± 4.5
2010 kPa, x2 = 0.8941 | 738.5 ± 4.7 | –
2020 kPa, x2 = 0.3229 | – | 674.1 ± 4.3
2020 kPa, x2 = 0.8941 | – | 725.38 ± 4.7
3000 kPa, x2 = 0.3229 | 686.69 ± 4.4 | –
3000 kPa, x2 = 0.4272 | 691.79 ± 4.4 | –
3000 kPa, x2 = 0.7021 | 713.46 ± 4.6 | –
3010 kPa, x2 = 0.1231 | 679.8 ± 4.3 | –
3010 kPa, x2 = 0.2315 | – | 673.01 ± 4.3
3010 kPa, x2 = 0.3229 | – | 675.25 ± 4.3
3010 kPa, x2 = 0.4272 | – | 679.49 ± 4.3
3010 kPa, x2 = 0.7021 | – | 699.75 ± 4.5
3010 kPa, x2 = 0.8941 | 739.56 ± 4.7 | 726.49 ± 4.7
3020 kPa, x2 = 0.1231 | – | 670.15 ± 4.3
3020 kPa, x2 = 0.2315 | 683.53 ± 4.4 | –
4000 kPa, x2 = 0.4272 | – | 680.67 ± 4.4
4010 kPa, x2 = 0.1231 | – | 671.29 ± 4.3
4010 kPa, x2 = 0.2315 | 684.63 ± 4.4 | –
4010 kPa, x2 = 0.3229 | 687.78 ± 4.4 | 676.42 ± 4.3
4010 kPa, x2 = 0.7021 | 714.57 ± 4.6 | 700.94 ± 4.5
4010 kPa, x2 = 0.8941 | – | 727.63 ± 4.7
4020 kPa, x2 = 0.1231 | 680.88 ± 4.4 | –
4020 kPa, x2 = 0.2315 | – | 674.2 ± 4.3
4020 kPa, x2 = 0.4272 | 692.9 ± 4.4 | –
4020 kPa, x2 = 0.8941 | 740.61 ± 4.7 | –
5000 kPa, x2 = 0.1231 | 681.97 ± 4.4 | –
5000 kPa, x2 = 0.4272 | – | 681.83 ± 4.4
5000 kPa, x2 = 0.7021 | 715.67 ± 4.6 | –
5010 kPa, x2 = 0.1231 | – | 672.43 ± 4.3
5010 kPa, x2 = 0.2315 | – | 675.32 ± 4.3
5010 kPa, x2 = 0.3229 | 688.88 ± 4.4 | –
5010 kPa, x2 = 0.4272 | 694 ± 4.5 | –
5010 kPa, x2 = 0.7021 | – | 702.12 ± 4.5
5010 kPa, x2 = 0.8941 | 741.67 ± 4.8 | 728.78 ± 4.7
5020 kPa, x2 = 0.2315 | 685.69 ± 4.4 | –
5020 kPa, x2 = 0.3229 | – | 677.57 ± 4.3
6000 kPa, x2 = 0.1231 | – | 673.56 ± 4.3
6000 kPa, x2 = 0.4272 | – | 683.02 ± 4.4
6010 kPa, x2 = 0.1231 | 683.04 ± 4.4 | –
6010 kPa, x2 = 0.2315 | – | 676.43 ± 4.3
6010 kPa, x2 = 0.3229 | 689.97 ± 4.4 | 678.73 ± 4.3
6010 kPa, x2 = 0.4272 | 695.09 ± 4.5 | –
6010 kPa, x2 = 0.7021 | 716.75 ± 4.6 | 703.28 ± 4.5
6010 kPa, x2 = 0.8941 | – | 729.91 ± 4.7
6020 kPa, x2 = 0.2315 | 686.75 ± 4.4 | –
6020 kPa, x2 = 0.8941 | 742.73 ± 4.8 | –
7000 kPa, x2 = 0.2315 | – | 677.57 ± 4.3
7000 kPa, x2 = 0.3229 | 691.04 ± 4.4 | –
7000 kPa, x2 = 0.8941 | 743.78 ± 4.8 | –
7010 kPa, x2 = 0.2315 | 687.82 ± 4.4 | –
7010 kPa, x2 = 0.3229 | – | 679.88 ± 4.4
7010 kPa, x2 = 0.4272 | 696.18 ± 4.5 | –
7010 kPa, x2 = 0.8941 | – | 731.05 ± 4.7
7020 kPa, x2 = 0.1231 | 684.1 ± 4.4 | 674.7 ± 4.3
7020 kPa, x2 = 0.4272 | – | 684.19 ± 4.4
7020 kPa, x2 = 0.7021 | 717.84 ± 4.6 | 704.46 ± 4.5
8000 kPa, x2 = 0.2315 | 688.91 ± 4.4 | –
8000 kPa, x2 = 0.3229 | – | 681.03 ± 4.4
8000 kPa, x2 = 0.7021 | – | 705.61 ± 4.5
8000 kPa, x2 = 0.8941 | 744.82 ± 4.8 | –
8010 kPa, x2 = 0.1231 | – | 675.84 ± 4.3
8010 kPa, x2 = 0.3229 | 692.11 ± 4.4 | –
8010 kPa, x2 = 0.4272 | 697.28 ± 4.5 | 685.36 ± 4.4
8010 kPa, x2 = 0.8941 | – | 732.17 ± 4.7
8020 kPa, x2 = 0.1231 | 685.16 ± 4.4 | –
8020 kPa, x2 = 0.2315 | – | 678.73 ± 4.3
8020 kPa, x2 = 0.7021 | 718.92 ± 4.6 | –
9000 kPa, x2 = 0.1231 | – | 676.94 ± 4.3
9000 kPa, x2 = 0.2315 | – | 679.85 ± 4.4
9010 kPa, x2 = 0.1231 | 686.2 ± 4.4 | –
9010 kPa, x2 = 0.2315 | 689.96 ± 4.4 | –
9010 kPa, x2 = 0.3229 | 693.2 ± 4.4 | 682.18 ± 4.4
9010 kPa, x2 = 0.4272 | – | 686.5 ± 4.4
9010 kPa, x2 = 0.7021 | – | 706.79 ± 4.5
9010 kPa, x2 = 0.8941 | 745.86 ± 4.8 | 733.3 ± 4.7
9020 kPa, x2 = 0.4272 | 698.35 ± 4.5 | –
9020 kPa, x2 = 0.7021 | 720.01 ± 4.6 | –
10000 kPa, x2 = 0.2315 | 690.99 ± 4.4 | 680.95 ± 4.4
10000 kPa, x2 = 0.4272 | – | 687.67 ± 4.4
10000 kPa, x2 = 0.7021 | 721.05 ± 4.6 | –
10000 kPa, x2 = 0.8941 | 746.88 ± 4.8 | –
10010 kPa, x2 = 0.1231 | 687.25 ± 4.4 | 678.03 ± 4.3
10010 kPa, x2 = 0.3229 | 694.26 ± 4.5 | 683.34 ± 4.4
10010 kPa, x2 = 0.7021 | – | 707.93 ± 4.5
10010 kPa, x2 = 0.8941 | – | 734.42 ± 4.7
10020 kPa, x2 = 0.4272 | 699.44 ± 4.5 | –
11000 kPa, x2 = 0.3229 | 695.31 ± 4.5 | –
11000 kPa, x2 = 0.4272 | 700.47 ± 4.5 | –
11010 kPa, x2 = 0.1231 | 688.29 ± 4.4 | –
11010 kPa, x2 = 0.7021 | 722.11 ± 4.6 | –
11020 kPa, x2 = 0.2315 | 692.04 ± 4.4 | –
11020 kPa, x2 = 0.8941 | 747.91 ± 4.8 | –
12000 kPa, x2 = 0.3229 | 696.36 ± 4.5 | –
12010 kPa, x2 = 0.1231 | 689.31 ± 4.4 | –
12010 kPa, x2 = 0.2315 | 693.08 ± 4.4 | –
12010 kPa, x2 = 0.4272 | 701.53 ± 4.5 | –
12010 kPa, x2 = 0.8941 | 748.9 ± 4.8 | –
12020 kPa, x2 = 0.7021 | 723.13 ± 4.6 | –
13010 kPa, x2 = 0.4272 | 702.56 ± 4.5 | –
13010 kPa, x2 = 0.8941 | 749.87 ± 4.8 | –
13020 kPa, x2 = 0.1231 | 690.32 ± 4.4 | –
13020 kPa, x2 = 0.2315 | 694.1 ± 4.5 | –
13020 kPa, x2 = 0.3229 | 697.39 ± 4.5 | –
13020 kPa, x2 = 0.7021 | 724.18 ± 4.6 | –
14000 kPa, x2 = 0.1231 | 691.3 ± 4.4 | –
14000 kPa, x2 = 0.3229 | 698.41 ± 4.5 | –
14000 kPa, x2 = 0.8941 | 750.86 ± 4.8 | –
14010 kPa, x2 = 0.2315 | 695.1 ± 4.5 | –
14010 kPa, x2 = 0.7021 | 725.19 ± 4.7 | –
14020 kPa, x2 = 0.4272 | 703.57 ± 4.5 | –
15010 kPa, x2 = 0.1231 | 692.28 ± 4.4 | –
15010 kPa, x2 = 0.4272 | 704.56 ± 4.5 | –
15010 kPa, x2 = 0.7021 | 726.16 ± 4.7 | –
15010 kPa, x2 = 0.8941 | 751.83 ± 4.8 | –
15020 kPa, x2 = 0.2315 | 696.09 ± 4.5 | –
15020 kPa, x2 = 0.3229 | 699.39 ± 4.5 | –
16000 kPa, x2 = 0.8941 | 752.78 ± 4.8 | –
16010 kPa, x2 = 0.1231 | 693.22 ± 4.5 | –
16010 kPa, x2 = 0.7021 | 727.16 ± 4.7 | –
16020 kPa, x2 = 0.2315 | 697.06 ± 4.5 | –
16020 kPa, x2 = 0.3229 | 700.38 ± 4.5 | –
16020 kPa, x2 = 0.4272 | 705.54 ± 4.5 | –
17000 kPa, x2 = 0.1231 | 694.17 ± 4.5 | –
17000 kPa, x2 = 0.3229 | 701.35 ± 4.5 | –
17000 kPa, x2 = 0.4272 | 706.5 ± 4.5 | –
17010 kPa, x2 = 0.7021 | 728.12 ± 4.7 | –
17020 kPa, x2 = 0.2315 | 698.04 ± 4.5 | –
17020 kPa, x2 = 0.8941 | 753.71 ± 4.8 | –
18010 kPa, x2 = 0.1231 | 695.1 ± 4.5 | –
18010 kPa, x2 = 0.2315 | 698.96 ± 4.5 | –
18010 kPa, x2 = 0.7021 | 729.04 ± 4.7 | –
18020 kPa, x2 = 0.3229 | 702.27 ± 4.5 | –
18020 kPa, x2 = 0.4272 | 707.45 ± 4.5 | –
18020 kPa, x2 = 0.8941 | 754.62 ± 4.8 | –
19000 kPa, x2 = 0.2315 | 699.84 ± 4.5 | –
19000 kPa, x2 = 0.3229 | 703.2 ± 4.5 | –
19000 kPa, x2 = 0.7021 | 729.96 ± 4.7 | –
19000 kPa, x2 = 0.8941 | 755.52 ± 4.8 | –
19010 kPa, x2 = 0.1231 | 695.98 ± 4.5 | –
19010 kPa, x2 = 0.4272 | 708.36 ± 4.5 | –
20000 kPa, x2 = 0.4272 | 709.29 ± 4.5 | –
20010 kPa, x2 = 0.1231 | 696.86 ± 4.5 | –
20010 kPa, x2 = 0.2315 | 700.72 ± 4.5 | –
20010 kPa, x2 = 0.3229 | 704.07 ± 4.5 | –
20010 kPa, x2 = 0.7021 | 730.88 ± 4.7 | –
20020 kPa, x2 = 0.8941 | 756.41 ± 4.8 | –
